A short description of series [1]: bead-based luminescence quenchers, dual-tagged ARNT – biochemical, AlphaScreen, cherry-pick, artefact control for ARNT-TACC3 interaction inhibitor project, dose response (AID 651705).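 Note: AlphaScreen bead proximity signal that flags compounds interfering with the detection technology; potency reflects signal decrease which marks the compound as an assay artifact.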 The series is classed as functional.
The target of series [2] is T1, Corticotropin-releasing factor receptor 2/Corticotropin-releasing factor-binding protein (Homo sapiens, UniProt P24387+Q13324).
T1 sequence (Q13324 whole entry): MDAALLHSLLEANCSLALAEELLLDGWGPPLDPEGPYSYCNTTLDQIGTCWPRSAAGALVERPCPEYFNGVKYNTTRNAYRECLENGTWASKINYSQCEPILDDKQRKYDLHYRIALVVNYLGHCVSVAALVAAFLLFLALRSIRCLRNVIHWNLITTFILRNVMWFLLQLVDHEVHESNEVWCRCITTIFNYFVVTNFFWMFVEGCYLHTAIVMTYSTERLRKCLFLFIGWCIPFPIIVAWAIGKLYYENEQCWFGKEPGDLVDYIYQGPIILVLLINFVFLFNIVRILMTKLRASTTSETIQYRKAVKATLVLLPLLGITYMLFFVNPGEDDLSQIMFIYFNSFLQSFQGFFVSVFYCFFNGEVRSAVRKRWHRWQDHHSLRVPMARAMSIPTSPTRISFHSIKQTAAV
T1 sequence (P24387 whole entry): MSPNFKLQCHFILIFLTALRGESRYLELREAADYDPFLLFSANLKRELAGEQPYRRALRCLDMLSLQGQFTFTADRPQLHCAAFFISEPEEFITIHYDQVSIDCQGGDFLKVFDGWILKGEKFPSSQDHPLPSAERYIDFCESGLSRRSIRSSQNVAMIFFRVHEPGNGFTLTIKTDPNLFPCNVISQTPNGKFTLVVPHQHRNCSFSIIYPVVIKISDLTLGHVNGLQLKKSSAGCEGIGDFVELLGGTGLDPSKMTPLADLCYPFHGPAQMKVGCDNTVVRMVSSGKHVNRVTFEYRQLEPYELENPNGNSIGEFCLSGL
The series is described as follows: Dose Response confirmation of uHTS hits for small molecule antagonists of the CRF-binding protein and CRF-R2 receptor complex. The format is functional. Conditions: read-out: IC50_Mean.

The target in series [3] is T1, Corticotropin-releasing factor receptor 2/Corticotropin-releasing factor-binding protein. The series can be described thus: activators of CRF receptor 2 with binding protein – uHTS hits, confirmation (AID 602473). The series is classed as functional. Conditions: read-out: EC50_Mean.
The target in series [4] is T2, Rac GTPase-activating protein 1 (Homo sapiens, UniProt Q9H0H5).
T2 sequence (Q9H0H5 whole entry): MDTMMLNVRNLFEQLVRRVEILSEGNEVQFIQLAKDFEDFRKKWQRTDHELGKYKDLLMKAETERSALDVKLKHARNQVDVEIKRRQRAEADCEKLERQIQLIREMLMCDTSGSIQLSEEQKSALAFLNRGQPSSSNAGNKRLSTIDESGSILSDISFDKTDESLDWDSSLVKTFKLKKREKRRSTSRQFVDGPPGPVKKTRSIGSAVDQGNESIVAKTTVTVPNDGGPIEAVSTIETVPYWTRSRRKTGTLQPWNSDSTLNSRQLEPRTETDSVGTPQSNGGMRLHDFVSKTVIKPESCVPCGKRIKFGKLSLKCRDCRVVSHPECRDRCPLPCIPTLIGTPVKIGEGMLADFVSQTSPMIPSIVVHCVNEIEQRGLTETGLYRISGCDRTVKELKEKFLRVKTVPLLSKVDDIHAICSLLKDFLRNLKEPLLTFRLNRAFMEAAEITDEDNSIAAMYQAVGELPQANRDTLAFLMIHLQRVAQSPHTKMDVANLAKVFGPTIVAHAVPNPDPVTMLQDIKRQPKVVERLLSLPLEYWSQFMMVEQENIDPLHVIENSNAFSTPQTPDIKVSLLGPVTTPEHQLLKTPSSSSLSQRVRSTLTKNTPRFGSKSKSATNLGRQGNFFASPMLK
The series is described as follows: blockers of MgcRacGAP-driven Rac1 GTP hydrolysis – biochemical, ADP Hunter fluorescence, primary and confirmatory, confirmation (AID 624330). The format is functional.

For the next series, the target named is T3, Cytochrome P450 1A2 (Homo sapiens, UniProt P05177).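 Note: PubChem cytochrome P450 panel assay, CYP1A2 panel member.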
T3 sequence (P05177 whole entry): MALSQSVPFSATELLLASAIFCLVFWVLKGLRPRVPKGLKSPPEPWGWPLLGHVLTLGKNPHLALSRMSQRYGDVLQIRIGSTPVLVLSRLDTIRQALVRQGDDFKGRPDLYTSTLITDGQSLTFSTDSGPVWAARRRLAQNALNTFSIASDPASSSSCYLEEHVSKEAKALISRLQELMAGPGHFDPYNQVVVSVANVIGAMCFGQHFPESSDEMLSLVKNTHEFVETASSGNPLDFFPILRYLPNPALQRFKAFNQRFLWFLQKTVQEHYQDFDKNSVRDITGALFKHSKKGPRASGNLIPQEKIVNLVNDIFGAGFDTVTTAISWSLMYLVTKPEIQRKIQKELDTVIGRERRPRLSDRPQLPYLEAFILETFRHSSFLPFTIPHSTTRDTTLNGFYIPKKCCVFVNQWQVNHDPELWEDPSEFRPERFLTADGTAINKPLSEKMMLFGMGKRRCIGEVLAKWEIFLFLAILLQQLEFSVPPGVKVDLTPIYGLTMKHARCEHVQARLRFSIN

A further series addresses Cytochrome P450 2C9 (Homo sapiens, UniProt P11712).
A further series deals with Escherichia coli. The series can be described thus: microbe, parasite or virus in culture.
A short description of series [5]: Trypanosoma cruzi growth suppression in host cells – NIH3T3 host cells, beta-gal luminescence, confirmation (AID 2044).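 Note: intracellular parasites grown in NIH/3T3 mouse fibroblasts as host cells; luminescent beta-galactosidase reporter signal from transgenic T. cruzi replicating inside host cells; inhibitors lower the luminescence signal.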 The format is functional, cell-based.
Series [6] is described as follows: NIH3T3 cell viability loss – ATP luminescence, mouse fibroblasts, counter-screen, dose response (AID 2010).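 Note: cells exposed to compound for about 90 hours before reading.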 The format is functional, cell-based.
The next series addresses T4, Bcl-2-related protein A1 (Mus musculus, UniProt Q07440).
T4 sequence (Q07440 whole entry): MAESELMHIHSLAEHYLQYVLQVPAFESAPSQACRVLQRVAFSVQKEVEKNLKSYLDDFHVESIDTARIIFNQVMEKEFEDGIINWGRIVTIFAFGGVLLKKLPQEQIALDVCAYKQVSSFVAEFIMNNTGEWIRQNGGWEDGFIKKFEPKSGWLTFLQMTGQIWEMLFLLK
The series is classed as functional.

Series [7] has as its target T5, Ubiquitin-conjugating enzyme E2 N (Homo sapiens, UniProt P61088).
T5 sequence (P61088 whole entry): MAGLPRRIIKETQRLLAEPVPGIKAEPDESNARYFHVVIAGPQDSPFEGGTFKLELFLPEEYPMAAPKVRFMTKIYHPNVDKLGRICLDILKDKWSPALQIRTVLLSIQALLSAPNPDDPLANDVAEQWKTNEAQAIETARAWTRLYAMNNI
The series is classed as functional.

Series [8] addresses T5, Ubiquitin-conjugating enzyme E2 N. The format is functional. This is another data set of the same source.
Series [9] is described as follows: viability of uninfected HEp-2 cells – cell-based, HTS, cytotoxicity control for RSV inhibitor project, dose response (AID 2410). The series is classed as functional. Conditions: human respiratory syncytial virus.
Series [10] deals with Ras and Rab interactor 1/Tyrosine-protein kinase ABL1 (Homo sapiens, UniProt P00519+Q13671). The format is functional.
For series [11], the target named is 26S proteasome non-ATPase regulatory subunit 14 (Homo sapiens, UniProt O00487). The series is described as follows: inhibition of proteasome subunit RPN11 – biochemical, fluorescence polarization, uHTS hits, confirmation (AID 602368). The format is functional. In general terms: Fluorescence polarisation rises when a labelled molecule tumbles more slowly, as on binding a larger partner.

The target of series [12] is 72 kDa type IV collagenase (Homo sapiens, UniProt P08253). The series can be described thus: Dose Response validation of uHTS RPN11 inhibitor hits using a MMP-2 Fluorescence assay. The series is classed as functional.
For a further series, the target named is Prothrombin (Bos taurus, UniProt P00735). The series can be described thus: thrombin protease inhibitors – biochemical, fluorescence polarization, uHTS hits, dose response (AID 602369). The format is functional.

Results on twelve compounds are retold here after ChEMBL document CHEMBL1201862, “PubChem BioAssay data set” (2004).

Activity calls are given as the source filed them.

Broadly, the AC50 is the midpoint of the concentration-response curve, whichever way the signal moves. By CC50 is commonly meant the concentration that lowers cell viability or growth by half.

Sequence of Ras and Rab interactor 1/Tyrosine-protein kinase ABL1 (P00519 whole entry): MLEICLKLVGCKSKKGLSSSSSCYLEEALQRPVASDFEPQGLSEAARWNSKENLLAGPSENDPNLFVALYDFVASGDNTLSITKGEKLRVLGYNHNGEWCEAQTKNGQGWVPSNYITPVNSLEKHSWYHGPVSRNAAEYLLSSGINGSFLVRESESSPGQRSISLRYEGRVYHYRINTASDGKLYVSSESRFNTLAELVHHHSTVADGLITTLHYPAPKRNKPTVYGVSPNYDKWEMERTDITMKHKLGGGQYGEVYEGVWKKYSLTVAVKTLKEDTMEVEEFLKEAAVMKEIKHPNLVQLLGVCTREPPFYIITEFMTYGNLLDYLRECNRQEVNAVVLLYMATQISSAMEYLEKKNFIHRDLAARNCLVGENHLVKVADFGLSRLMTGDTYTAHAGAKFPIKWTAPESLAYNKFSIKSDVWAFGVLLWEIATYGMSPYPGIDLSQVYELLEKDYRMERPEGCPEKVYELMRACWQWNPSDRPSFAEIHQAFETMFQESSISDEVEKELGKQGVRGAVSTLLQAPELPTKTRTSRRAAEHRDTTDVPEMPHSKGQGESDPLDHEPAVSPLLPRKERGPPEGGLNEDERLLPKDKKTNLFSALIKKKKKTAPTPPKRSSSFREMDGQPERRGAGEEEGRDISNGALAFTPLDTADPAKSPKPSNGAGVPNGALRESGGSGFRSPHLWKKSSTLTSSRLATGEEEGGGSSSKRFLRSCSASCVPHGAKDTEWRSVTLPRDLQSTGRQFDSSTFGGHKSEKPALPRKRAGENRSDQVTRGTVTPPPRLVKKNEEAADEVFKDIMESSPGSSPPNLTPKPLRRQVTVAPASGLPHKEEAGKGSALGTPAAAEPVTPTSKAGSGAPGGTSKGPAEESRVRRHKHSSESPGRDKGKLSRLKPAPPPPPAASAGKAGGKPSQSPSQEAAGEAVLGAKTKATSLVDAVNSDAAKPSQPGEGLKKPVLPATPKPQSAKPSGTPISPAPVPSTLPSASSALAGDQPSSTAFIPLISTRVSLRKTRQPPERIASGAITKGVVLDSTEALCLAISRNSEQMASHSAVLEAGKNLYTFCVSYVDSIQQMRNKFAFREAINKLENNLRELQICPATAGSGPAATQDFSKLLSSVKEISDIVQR
Sequence of Ras and Rab interactor 1/Tyrosine-protein kinase ABL1 (Q13671 whole entry): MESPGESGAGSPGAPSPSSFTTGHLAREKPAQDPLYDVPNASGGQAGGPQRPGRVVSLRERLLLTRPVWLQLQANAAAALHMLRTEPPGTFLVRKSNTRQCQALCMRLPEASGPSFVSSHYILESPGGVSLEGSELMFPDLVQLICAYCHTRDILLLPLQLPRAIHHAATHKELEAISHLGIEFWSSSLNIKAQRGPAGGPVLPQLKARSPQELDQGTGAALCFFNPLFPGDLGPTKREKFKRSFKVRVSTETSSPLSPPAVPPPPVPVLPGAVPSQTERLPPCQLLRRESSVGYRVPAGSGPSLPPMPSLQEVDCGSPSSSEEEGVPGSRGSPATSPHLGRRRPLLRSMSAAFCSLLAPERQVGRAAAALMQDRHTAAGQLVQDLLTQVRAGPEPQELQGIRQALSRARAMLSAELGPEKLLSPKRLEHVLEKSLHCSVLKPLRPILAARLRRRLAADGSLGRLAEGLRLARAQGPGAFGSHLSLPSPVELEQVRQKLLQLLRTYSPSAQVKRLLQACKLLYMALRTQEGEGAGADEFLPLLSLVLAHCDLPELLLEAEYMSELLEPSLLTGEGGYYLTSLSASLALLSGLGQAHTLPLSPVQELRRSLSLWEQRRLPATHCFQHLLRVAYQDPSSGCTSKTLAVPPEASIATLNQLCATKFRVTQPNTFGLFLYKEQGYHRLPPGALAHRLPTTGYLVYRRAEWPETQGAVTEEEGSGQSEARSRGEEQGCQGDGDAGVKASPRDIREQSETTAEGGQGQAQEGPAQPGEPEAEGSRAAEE
Sequence of 26S proteasome non-ATPase regulatory subunit 14 (O00487 whole entry): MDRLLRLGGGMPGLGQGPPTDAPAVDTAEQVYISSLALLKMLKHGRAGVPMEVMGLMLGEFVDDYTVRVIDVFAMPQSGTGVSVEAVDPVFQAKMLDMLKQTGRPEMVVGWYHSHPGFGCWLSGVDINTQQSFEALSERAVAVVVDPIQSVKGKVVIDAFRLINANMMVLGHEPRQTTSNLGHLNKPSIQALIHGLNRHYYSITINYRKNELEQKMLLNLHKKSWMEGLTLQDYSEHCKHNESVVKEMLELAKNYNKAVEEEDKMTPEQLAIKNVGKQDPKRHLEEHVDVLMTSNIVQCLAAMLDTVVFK
Sequence of 72 kDa type IV collagenase (P08253 whole entry): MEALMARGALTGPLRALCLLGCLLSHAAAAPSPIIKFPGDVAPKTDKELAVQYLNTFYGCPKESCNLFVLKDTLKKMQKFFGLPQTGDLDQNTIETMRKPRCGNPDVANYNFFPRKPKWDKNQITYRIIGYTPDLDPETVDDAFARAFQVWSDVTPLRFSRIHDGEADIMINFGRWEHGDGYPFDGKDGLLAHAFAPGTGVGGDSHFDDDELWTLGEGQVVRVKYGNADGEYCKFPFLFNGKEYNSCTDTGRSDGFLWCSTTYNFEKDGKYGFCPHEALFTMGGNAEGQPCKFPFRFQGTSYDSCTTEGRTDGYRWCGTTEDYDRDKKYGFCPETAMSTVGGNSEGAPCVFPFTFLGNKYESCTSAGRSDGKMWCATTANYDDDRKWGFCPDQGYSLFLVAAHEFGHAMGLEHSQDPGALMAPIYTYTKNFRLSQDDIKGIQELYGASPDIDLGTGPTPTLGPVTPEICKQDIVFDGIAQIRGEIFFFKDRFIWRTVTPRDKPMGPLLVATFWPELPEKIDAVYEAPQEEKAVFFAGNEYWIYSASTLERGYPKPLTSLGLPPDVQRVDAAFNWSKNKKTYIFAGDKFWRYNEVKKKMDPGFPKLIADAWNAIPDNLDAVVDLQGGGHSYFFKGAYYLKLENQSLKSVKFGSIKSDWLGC
Sequence of Cytochrome P450 2C9 (P11712 whole entry): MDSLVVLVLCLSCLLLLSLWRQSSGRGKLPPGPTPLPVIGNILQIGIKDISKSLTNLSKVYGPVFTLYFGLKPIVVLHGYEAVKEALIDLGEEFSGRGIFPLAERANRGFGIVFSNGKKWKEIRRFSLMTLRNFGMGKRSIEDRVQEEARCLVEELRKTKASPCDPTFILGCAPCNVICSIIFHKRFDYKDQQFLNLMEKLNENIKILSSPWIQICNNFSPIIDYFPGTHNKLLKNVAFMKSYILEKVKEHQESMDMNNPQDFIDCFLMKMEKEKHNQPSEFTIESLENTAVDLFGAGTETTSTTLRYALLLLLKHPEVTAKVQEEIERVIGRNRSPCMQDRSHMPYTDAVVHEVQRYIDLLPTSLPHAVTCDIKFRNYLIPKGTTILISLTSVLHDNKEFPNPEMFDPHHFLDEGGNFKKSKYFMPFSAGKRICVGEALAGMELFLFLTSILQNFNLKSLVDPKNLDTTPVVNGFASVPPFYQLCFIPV

Take `O=S(=O)(N[C@@H]1CC[C@H](CCn2cc(-c3ccccn3)nn2)O[C@@H]1CO)c1cccc(F)c1`: in [1], the AC50 is 79.4 µM (active).

In the case of `COc1cccc(CN2CCN(Cc3cc(OC)c(OC)cc3[N+](=O)[O-])CC2)c1.O=C(O)C(=O)O`, the IC50 in series [2] was > 47.1 µM (inactive); in series [4] it was 56.8 µM (active). The EC50 in series [3] is > 53 µM (inactive). Also, the AC50 at Cytochrome P450 1A2 was 14.1 µM (inconclusive); at Cytochrome P450 2C9, “inconclusive”; with Escherichia coli, > 150 µM (inactive).

In the case of `Cc1cc(C)c2sc(N(CCCN(C)C)C(=O)c3ccc(S(=O)(=O)N(C)C4CCCCC4)cc3)nc2c1`, the EC50 in series [5] was 0.385 µM (active); in series [6], > 30 µM (not active). Besides, the IC50 at Bcl-2-related protein A1 is > 20 µM (inactive); in [7], 10.6 µM (active); in series [8], 10 µM (active).

For `Cc1nc(Nc2cccc(O)c2)c2c3c(sc2n1)CCC3`, the CC50 in [9] was 12.7 µM (active). Moreover, the IC50 in series [10] is > 73.5 µM (inactive).

On to `Cc1nc2ccccc2n1C1CCN(CC(=O)Nc2ccccc2Br)CC1` [ASN06356088], for which the results for the IC50 (on Bcl-2-related protein A1; in series [7]; in series [8]) were > 20 µM (inactive), 16.4 µM (active) and > 20 µM (inactive), respectively.

On to `CN(C)c1nc(SCC#N)nc(N2CCOCC2)n1`, for which the AC50 with Escherichia coli was 66.1 µM (active).

Consider `O=C(N[C@@H]1CC[C@@H](CCn2cc(-c3ccccn3)nn2)O[C@H]1CO)c1ccncc1`, for which the AC50 in series [1] is 72.8 µM (active).

In the case of `CCc1ccc(OCC(=O)NNC(=O)c2cc(S(=O)(=O)N(C)C)ccc2N2CCCC2)cc1`, the IC50 in [11] was 47 µM (active); in series [12], 23.6 µM (active); at Prothrombin, > 100 µM (inactive).

For `C=Cc1ccc(Cn2c(C(=O)O)c(C=O)c3ccccc32)cc1`, the IC50 in [11] was 12.6 µM (active); in series [12], > 100 µM (inactive); at Prothrombin, 39.1 µM (active).

On to `C#CCOCCOCCOCCNc1nc(N2CCN(C(=O)[C@H](CCCCN)n3cc(CN)nn3)CC2)nc(N2CCN(C(=O)[C@H](CCCCN)n3cc(CN)nn3)CC2)n1`, for which the IC50 at Bcl-2-related protein A1 is > 20 µM (inactive); in series [7] it was 5.36 µM (active); in series [8], 5.15 µM (active); in series [4], 203 µM (active).

Consider `OC1(c2ccccc2Cl)NN=C2CCCCCN21` (stereo unspecified), for which the concentration at half-maximal activity (AC50) in the series with Escherichia coli was 26 µM (active).

Take `Oc1nc2ccccc2n1C1CCN(C(c2nnnn2-c2ccc3c(c2)OCCO3)C2CC2)CC1` (stereo unspecified): in series [10], the IC50 was 40.9 µM (inactive).
